Results: US9227971B2, “Pyrazolo[1,5-a]pyrimidine compounds as mTOR inhibitors” (Merck Sharp & Dohme Corp., priority 2010, dated 2016)
pIC50: −log10 of the molar value.

What was measured:
[1] = system: phosphorylated AKT Ser473 (pAKT S473), mTORC2 activity, PC3 cells; assay: mTOR target engagement assay, immunofluorescent cell-based, pAKT S473 readout (mTORC2 activity); conditions: Homo sapiens, PC-3, PC3 cells, compound treatment ninety minutes at 37° C.
Outline: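 After blocking, cells were stained overnight at 4 °C with anti-pAKT S473 antibody, then a fluorescent secondary; inhibition was read as reduced fluorescence intensity.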

[2] = system: phosphorylated 4E-BP1 Thr37/46 (p4E-BP1 Thr37/46), mTORC1 activity, PC3 cells; assay: mTOR target engagement assay, immunofluorescent cell-based, p4E-BP1 Thr37/46 readout (mTORC1 activity); conditions: Homo sapiens, PC-3, PC3 cells, compound treatment ninety minutes at 37° C.; read-out: p4E-BP1 Thr37/46 IC50
Outline: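 Read-out is fluorescence intensity of immunostained p4E-BP1 Thr37/46 in fixed PC3 cells, fitted to a logistic curve for IC50 with DMSO-only wells as top. Cells had been exposed to serial compound dilutions for ninety minutes at 37° C in 5% FBS medium with 0.25% DMSO.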

## CC(=O)c1c([C@@H]2C[C@H]3CC[C@@H](C2)N3C(=O)c2nnc[nH]2)nc2c(-c3cnc(-c4ccn(C)n4)c(C)c3)cnn2c1N [Compound 1.1.114, 1-(5-((1R,3s,5S)-8-(4H-1,2,4-triazole-3-carbonyl)-8-azabicyclo[3.2.1]octan-3-yl)-7-amino-3-(5-methyl-6-(1-methyl-1H-pyrazol-3-yl)pyridin-3-yl)pyrazolo[1,5-a]pyrimidin-6-yl)ethanone]
[1]
  pIC50: 5.00 to 6.00
[2]
  pIC50: 5.00 to 6.00

## CC(=O)C(=O)N1[C@@H]2CC[C@H]1C[C@H](c1nc3c(-c4ccc(-c5ccccc5)nc4)cnn3c(N)c1C(C)=O)C2 [Compound 1.1.117, 1-((1R,3s,5S)-3-(6-acetyl-7-amino-3-(6-phenylpyridin-3-yl)pyrazolo[1,5-a]pyrimidin-5-yl)-8-azabicyclo[3.2.1]octan-8-yl)propane-1,2-dione]
[1]
  pIC50: 6.00 to 7.00
[2]
  pIC50: 6.00 to 7.00

## CC(=O)c1c([C@@H]2C[C@H]3CC[C@@H](C2)N3C(=O)C(N)=O)nc2c(-c3ccc(-c4ccccc4)nc3)cnn2c1N [Compound 1.1.118, 2-((1R,3s,5S)-3-(6-acetyl-7-amino-3-(6-phenylpyridin-3-yl)pyrazolo[1,5-a]pyrimidin-5-yl)-8-azabicyclo[3.2.1]octan-8-yl)-2-oxoacetamide]
[1]
  pIC50: 6.00 to 7.00
[2]
  pIC50: 6.00 to 7.00

## CC(=O)c1c([C@@H]2C[C@H]3CC[C@@H](C2)N3C(=O)c2ccn[nH]2)nc2c(-c3ccc(-c4ccn(C)n4)nc3)cnn2c1N [Compound 1.1.121, 1-(5-((1R,3s,5S)-8-(1H-pyrazole-5-carbonyl)-8-azabicyclo[3.2.1]octan-3-yl)-7-amino-3-(6-(1-methyl-1H-pyrazol-3-yl)pyridin-3-yl)pyrazolo[1,5-a]pyrimidin-6-yl)ethanone]
[1]
  pIC50: 7.00 to 9.00
[2]
  pIC50: 6.00 to 7.00

## CC(=O)c1c([C@@H]2C[C@H]3CC[C@@H](C2)N3C(=O)N2CCOCC2)nc2c(-c3ccc(-c4ccccc4)nc3)cnn2c1N [Compound 1.1.122, 1-(7-amino-5-((1R,3s,5S)-8-(morpholine-4-carbonyl)-8-azabicyclo[3.2.1]octan-3-yl)-3-(6-phenylpyridin-3-yl)pyrazolo[1,5-a]pyrimidin-6-yl)ethanone]
[1]
  pIC50: 5.00 to 6.00
[2]
  pIC50: 5.00 to 6.00

## CC(=O)c1c([C@@H]2C[C@H]3CC[C@@H](C2)N3C(=O)c2nnc[nH]2)nc2c(-c3cnn(-c4ccc(F)cc4)c3)cnn2c1N [Compound 1.1.123, 1-(5-((1R,3s,5S)-8-(4H-1,2,4-triazole-3-carbonyl)-8-azabicyclo[3.2.1]octan-3-yl)-7-amino-3-(1-(4-fluorophenyl)-1H-pyrazol-4-yl)pyrazolo[1,5-a]pyrimidin-6-yl)ethanone]
[1]
  pIC50: 6.00 to 7.00
[2]
  pIC50: 5.00 to 6.00

## COc1ccc(-c2ccc(-c3cnn4c(N)c(C(C)=O)c([C@@H]5C[C@H]6CC[C@@H](C5)N6C(=O)c5nnc[nH]5)nc34)cn2)cc1C#N [Compound 1.1.124, 5-(5-(5-((1R,3s,5S)-8-(4H-1,2,4-triazole-3-carbonyl)-8-azabicyclo[3.2.1]octan-3-yl)-6-acetyl-7-aminopyrazolo[1,5-a]pyrimidin-3-yl)pyridin-2-yl)-2-methoxybenzonitrile]
[1]
  pIC50: 6.00 to 7.00
[2]
  pIC50: 6.00 to 7.00

## COc1ccc2ncc(-c3cnn4c(N)c(C(C)=O)c([C@@H]5C[C@H]6CC[C@@H](C5)N6C(=O)c5nnc[nH]5)nc34)cc2c1 [Compound 1.1.125, 1-(5-((1R,3s,5S)-8-(4H-1,2,4-triazole-3-carbonyl)-8-azabicyclo[3.2.1]octan-3-yl)-7-amino-3-(6-methoxyquinolin-3-yl)pyrazolo[1,5-a]pyrimidin-6-yl)ethanone]
[1]
  pIC50: 5.00 to 6.00
[2]
  pIC50: 6.00 to 7.00

## CC(=O)c1c([C@@H]2C[C@H]3CC[C@@H](C2)N3C(=O)c2nnc[nH]2)nc2c(-c3cnc4ccc(CO)cc4c3)cnn2c1N [Compound 1.1.126, 1-(5-((1R,3s,5S)-8-(4H-1,2,4-triazole-3-carbonyl)-8-azabicyclo[3.2.1]octan-3-yl)-7-amino-3-(6-(hydroxymethyl)quinolin-3-yl)pyrazolo[1,5-a]pyrimidin-6-yl)ethanone]
[1]
  pIC50: 5.00 to 6.00
[2]
  pIC50: 5.00 to 6.00

## CC(=O)c1c([C@@H]2C[C@H]3CC[C@@H](C2)N3C(=O)c2nnc[nH]2)nc2c(-c3ccc(-n4cnc(C)c4)nc3)cnn2c1N [Compound 1.1.128, 1-(5-((1R,3s,5S)-8-(4H-1,2,4-triazole-3-carbonyl)-8-azabicyclo[3.2.1]octan-3-yl)-7-amino-3-(6-(4-methyl-1H-imidazol-1-yl)pyridin-3-yl)pyrazolo[1,5-a]pyrimidin-6-yl)ethanone]
[1]
  pIC50: < 5.00
[2]
  pIC50: < 5.00

## CC(=O)c1c([C@@H]2C[C@H]3CC[C@@H](C2)N3C(=O)c2nnc[nH]2)nc2c(-c3ccc(-n4ccnc4)nc3)cnn2c1N [Compound 1.1.129, 1-(3-(6-(1H-imidazol-1-yl)pyridin-3-yl)-5-((1R,3s,5S)-8-(4H-1,2,4-triazole-3-carbonyl)-8-azabicyclo[3.2.1]octan-3-yl)-7-aminopyrazolo[1,5-a]pyrimidin-6-yl)ethanone]
[1]
  pIC50: < 5.00
[2]
  pIC50: < 5.00

## CC(=O)c1c([C@@H]2C[C@H]3CC[C@@H](C2)N3C(=O)c2nnc(N)[nH]2)nc2c(-c3ccc(-n4cc(C)cn4)nc3)cnn2c1N [Compound 1.1.130, 1-(7-amino-5-((1R,3s,5S)-8-(5-amino-4H-1,2,4-triazole-3-carbonyl)-8-azabicyclo[3.2.1]octan-3-yl)-3-(6-(4-methyl-1H-pyrazol-1-yl)pyridin-3-yl)pyrazolo[1,5-a]pyrimidin-6-yl)ethanone]
[1]
  pIC50: 7.00 to 9.00
[2]
  pIC50: 7.00 to 9.00

## CC(=O)c1c([C@@H]2C[C@H]3CC[C@@H](C2)N3C(=O)c2ccn[nH]2)nc2c(-c3ccc(-n4cc(C)cn4)nc3)cnn2c1N [Compound 1.1.131, 1-(5-((1R,3s,5S)-8-(1H-pyrazole-5-carbonyl)-8-azabicyclo[3.2.1]octan-3-yl)-7-amino-3-(6-(4-methyl-1H-pyrazol-1-yl)pyridin-3-yl)pyrazolo[1,5-a]pyrimidin-6-yl)ethanone]
[1]
  pIC50: 6.00 to 7.00
[2]
  pIC50: 6.00 to 7.00

## CC(=O)c1c([C@@H]2C[C@H]3CC[C@@H](C2)N3C(=O)c2cc(N)n[nH]2)nc2c(-c3ccc(-n4cc(C)cn4)nc3)cnn2c1N [Compound 1.1.132, 1-(7-amino-5-((1R,3s,5S)-8-(3-amino-1H-pyrazole-5-carbonyl)-8-azabicyclo[3.2.1]octan-3-yl)-3-(6-(4-methyl-1H-pyrazol-1-yl)pyridin-3-yl)pyrazolo[1,5-a]pyrimidin-6-yl)ethanone]
[1]
  pIC50: 7.00 to 9.00
[2]
  pIC50: 7.00 to 9.00

## CC(=O)c1c([C@@H]2C[C@H]3CC[C@@H](C2)N3C(=O)CO)nc2c(-c3ccc(-n4ccc(C)n4)nc3)cnn2c1N [Compound 1.1.133, 1-((1R,3s,5S)-3-(6-acetyl-7-amino-3-(6-(3-methyl-1H-pyrazol-1-yl)pyridin-3-yl)pyrazolo[1,5-a]pyrimidin-5-yl)-8-azabicyclo[3.2.1]octan-8-yl)-2-hydroxyethanone]
[1]
  pIC50: 6.00 to 7.00
[2]
  pIC50: 5.00 to 6.00

## CC(=O)c1c([C@@H]2C[C@H]3CC[C@@H](C2)N3C(=O)CO)nc2c(-c3ccc(-n4cc(C)cn4)nc3)cnn2c1N [Compound 1.1.134, 1-((1R,3s,5S)-3-(6-acetyl-7-amino-3-(6-(4-methyl-1H-pyrazol-1-yl)pyridin-3-yl)pyrazolo[1,5-a]pyrimidin-5-yl)-8-azabicyclo[3.2.1]octan-8-yl)-2-hydroxyethanone]
[1]
  pIC50: 7.00 to 9.00
[2]
  pIC50: 6.00 to 7.00

## CC(=O)c1c([C@@H]2C[C@H]3CC[C@@H](C2)N3C(=O)c2nnc[nH]2)nc2c(-c3ccc(-n4cc(C)cn4)nc3)cnn2c1N [Compound 1.1.135, 1-(5-((1R,3s,5S)-8-(4H-1,2,4-triazole-3-carbonyl)-8-azabicyclo[3.2.1]octan-3-yl)-7-amino-3-(6-(4-methyl-1H-pyrazol-1-yl)pyridin-3-yl)pyrazolo[1,5-a]pyrimidin-6-yl)ethanone]
[1]
  pIC50: 7.00 to 9.00
[2]
  pIC50: 7.00 to 9.00

## CC(=O)c1c([C@@H]2C[C@H]3CC[C@@H](C2)N3C(=O)c2nnc[nH]2)nc2c(-c3ccc(-n4ccc(C)n4)nc3)cnn2c1N [Compound 1.1.136, 1-(5-((1R,3s,5S)-8-(4H-1,2,4-triazole-3-carbonyl)-8-azabicyclo[3.2.1]octan-3-yl)-7-amino-3-(6-(3-methyl-1H-pyrazol-1-yl)pyridin-3-yl)pyrazolo[1,5-a]pyrimidin-6-yl)ethanone]
[1]
  pIC50: 7.00 to 9.00
[2]
  pIC50: 6.00 to 7.00

## CCn1ccc(-c2ccc(-c3cnn4c(N)c(C(C)=O)c([C@@H]5C[C@H]6CC[C@@H](C5)N6C(=O)CO)nc34)cn2)n1 [Compound 1.1.137, 1-((1R,3s,5S)-3-(6-acetyl-7-amino-3-(6-(1-ethyl-1H-pyrazol-3-yl)pyridin-3-yl)pyrazolo[1,5-a]pyrimidin-5-yl)-8-azabicyclo[3.2.1]octan-8-yl)-2-hydroxyethanone]
[1]
  pIC50: 7.00 to 9.00
[2]
  pIC50: 6.00 to 7.00

## CCn1ccc(-c2ccc(-c3cnn4c(N)c(C(C)=O)c([C@@H]5C[C@H]6CC[C@@H](C5)N6C(=O)c5nnc[nH]5)nc34)cn2)n1 [Compound 1.1.138, 1-(5-((1R,3s,5S)-8-(4H-1,2,4-triazole-3-carbonyl)-8-azabicyclo[3.2.1]octan-3-yl)-7-amino-3-(6-(1-ethyl-1H-pyrazol-3-yl)pyridin-3-yl)pyrazolo[1,5-a]pyrimidin-6-yl)ethanone]
[1]
  pIC50: 7.00 to 9.00
[2]
  pIC50: 7.00 to 9.00
